What all share (assay type): cell-based
Holding throughout (conditions): banded into grades

One test relates to Aspergillus terreus AT4. Kind of test: Measurement of Minimum Inhibitory Concentrations (MICs), A. terreus. As to the method: (§1) Between 1 and 5 mgs of compound were accurately weighed out into a sterile Eppendorf tube. The compound was dissolved in DMSO to give a solution containing 5 mg/mL. Tubes were stored at −20° C. until required. On the day of testing thawed solutions were vortex mixed to ensure homogeneity. 30 μL of solution was removed and added to 570 μL of sterile water in a separate sterile Eppendorf. The thoroughly mixed solution was used to prepare a series of doubling dilutions in water, in a deep well plate. […] replicate plates were prepared using a Minitrak by aspirating […] from each well into eleven clear polystyrene 96 well plates. Spores of Aspergillus spp. (Aspergillus fumigatus [two strains], Aspergillus terreus [two strains], Aspergillus niger and Aspergillus flavus) were harvested from cultures grown on Sabarauds agar for 5 days, and resuspended in PBS/Tween 80 to approx 1×10^7 cfu/mL. Each organism suspension was diluted in YAG medium (1% glucose, 1% ammonium chloride and 0.5% yeast extract) to 0.5-2×10^4 cfu/mL. 80 μL of an organism suspension was added to each well of the plate containing drug dilutions. This produced MIC plates with a drug range 50-0.05 mg/L and organism inocula of 1−2×10^4 cfu/mL for Aspergillus spp. All plates were incubated for 24 hrs at 35° C. Growth was assessed by monitoring the optical density at 485 nm for each well. The MIC of a compound is the lowest drug concentration that inhibits growth of an organism by >70% compared with a drug free control. MICs are recorded as mg/L. In cases where the MIC of an organism is >=0.05 mg/L the MIC is repeated using a concentration range of 0.5-0.0005 mg/L. Other growth media can be used for susceptibility testing, and the activity of the described compounds was also assessed in RPMI medium containing 2% glucose, and 0.135M MOPS buffer. MIC tests in YAG medium have more clear-cut endpoints and have slightly lower MICs than those performed in RPMI medium. The following organisms were tested: Aspergillus flavus, Aspergillus fumigatus AF293 and AF210, Aspergillus niger and Aspergillus terreus AT4 and AT49.

Test [1] concerns Aspergillus fumigatus AF210. The experiment in a line: Measurement of Minimum Inhibitory Concentrations (MICs), A. fumigatus 210. The method, then: as §1
A further test deals with Aspergillus niger. The experiment in a line: Measurement of Minimum Inhibitory Concentrations (MICs), A. niger. As to the method: as §1
Test [2] has as its system Aspergillus fumigatus AF293. The experiment in a line: Measurement of Minimum Inhibitory Concentrations (MICs), A. fumigatus. The method, then: as §1
In a further test the test system is Aspergillus terreus AT49. The experiment in a line: Measurement of Minimum Inhibitory Concentrations (MICs), A. terreus 49. The method, then: as §1
For a further test, the system named is Aspergillus flavus. Kind of test: Measurement of Minimum Inhibitory Concentrations (MICs), A. flavus. The method, then: as §1
The mark [3] stands for this setting: RPMI medium containing 2% glucose, 0.135M MOPS buffer.
[4] abbreviates: YAG medium, 24 hrs at 35° C., >70% growth inhibition.

In brackets after ≈: the same amount, converted by molar mass.

Among the data in patent US8524705B2, “2-oxo-2-(2-phenyl-5,6,7,8-tetrahydro-indolizin-3-yl)-acetamide derivatives and related compounds as antifungal agents” (F2G Limited British Body Corporate, priority 2007, dated 2013) are MIC values, retold here.

As for `O=C(NC1CCN(c2ccccc2)CC1)C(=O)c1c(-c2ccccc2)cc2n1CCCC2` [Example 12, 2-Oxo-N-(1-phenyl-piperidin-4-yl)-2-(2-phenyl-5,6,7,8-tetrahydro-indolizin-3-yl)-acetamide], the MIC is 1 to 10 mg/L (≈ 2.34 to 23.4 µM) in the test on Aspergillus terreus AT4 (setting [3]); under 1 mg/L against Aspergillus terreus AT4 (setting [4]); 1 to 10 mg/L (≈ 2.34 to 23.4 µM) in test [1] (setting [3]); under 1 mg/L in test [1] (setting [4]); 1 to 10 mg/L (≈ 2.34 to 23.4 µM) with Aspergillus niger (setting [3]); under 1 mg/L against Aspergillus niger (setting [4]). Besides, the MIC was 1 to 10 mg/L (≈ 2.34 to 23.4 µM) in test [2] (setting [3]); under 1 mg/L in test [2] (setting [4]); 1 to 10 mg/L (≈ 2.34 to 23.4 µM) in the test with Aspergillus terreus AT49 (setting [3]); under 1 mg/L in the test with Aspergillus terreus AT49 (setting [4]); over 10 mg/L against Aspergillus flavus (setting [3]); over 10 mg/L against Aspergillus flavus (setting [4]).

As to `COc1cc(C)cc(N2CCN(c3ccc(NC(=O)C(=O)c4c(-c5ccccc5)cc5n4CCCC5)cc3)CC2)n1` [Example 13, N-{4-[4-(6-Methoxy-4-methyl-pyridin-2-yl)-piperazin-1-yl]-phenyl}-2-oxo-2-(2-phenyl-5,6,7,8-tetrahydro-indolizin-3-yl)-acetamide], the MIC (against Aspergillus terreus AT4 (setting [3]); with Aspergillus terreus AT4 (setting [4]); in test [1] (setting [3]); in test [1] (setting [4]); against Aspergillus niger (setting [3]); with Aspergillus niger (setting [4])) was under 1 mg/L in each case. In addition, the MIC (in test [2] (setting [3]); in test [2] (setting [4]); in the test with Aspergillus terreus AT49 (setting [3]); in the test with Aspergillus terreus AT49 (setting [4]); with Aspergillus flavus (setting [3]); in the test on Aspergillus flavus (setting [4])) was under 1 mg/L in each case.

Regarding `Cc1cc(OCCOc2ccc(NC(=O)C(=O)c3c(-c4ccccc4)cc4n3CCCC4)cc2)cc(C)n1` [Example 14, N-{4-[2-(2,6-Dimethyl-pyridin-4-yloxy)-ethoxy]-phenyl}-2-oxo-2-(2-phenyl-5,6,7,8-tetrahydro-indolizin-3-yl)-acetamide], the MIC against Aspergillus terreus AT4 (setting [3]) was under 1 mg/L; in the test on Aspergillus terreus AT4 (setting [4]), 1 to 10 mg/L (≈ 1.96 to 19.6 µM); in test [1] (setting [3]) it was 1 to 10 mg/L (≈ 1.96 to 19.6 µM); in test [1] (setting [4]), 1 to 10 mg/L (≈ 1.96 to 19.6 µM); in the test on Aspergillus niger (setting [3]), 1 to 10 mg/L (≈ 1.96 to 19.6 µM); against Aspergillus niger (setting [4]), 1 to 10 mg/L (≈ 1.96 to 19.6 µM). Further, the MIC in test [2] (setting [3]) was 1 to 10 mg/L (≈ 1.96 to 19.6 µM); in test [2] (setting [4]), 1 to 10 mg/L (≈ 1.96 to 19.6 µM); against Aspergillus terreus AT49 (setting [3]) it was under 1 mg/L; against Aspergillus terreus AT49 (setting [4]), under 1 mg/L; with Aspergillus flavus (setting [3]) it was over 10 mg/L; against Aspergillus flavus (setting [4]) it was 1 to 10 mg/L (≈ 1.96 to 19.6 µM).

On to `CCc1cccc(N2CCN(c3ccc(NC(=O)C(=O)c4c(-c5ccccc5)cc5n4CCCC5)cc3)CC2)n1` [Example 15, N-{4-[4-(6-Ethyl-pyridin-2-yl)-piperazin-1-yl]-phenyl}-2-oxo-2-(2-phenyl-5,6,7,8-tetrahydro-indolizin-3-yl)-acetamide], for which the MIC (against Aspergillus terreus AT4 (setting [3]); with Aspergillus terreus AT4 (setting [4]); in test [1] (setting [3]); in test [1] (setting [4]); with Aspergillus niger (setting [3]); with Aspergillus niger (setting [4])) was under 1 mg/L throughout. In addition, the MIC (in test [2] (setting [3]); in test [2] (setting [4]); with Aspergillus terreus AT49 (setting [3]); with Aspergillus terreus AT49 (setting [4]); against Aspergillus flavus (setting [3]); in the test with Aspergillus flavus (setting [4])) was under 1 mg/L throughout.

With `Cc1ccc(N2CCN(c3ccc(NC(=O)C(=O)c4c(-c5ccccc5)cc5n4CCCC5)cc3)CC2)nc1` [Example 16, N-{4-[4-(5-Methyl-pyridin-2-yl)-piperazin-1-yl]-phenyl}-2-oxo-2-(2-phenyl-5,6,7,8-tetrahydro-indolizin-3-yl)-acetamide], the MIC (with Aspergillus terreus AT4 (setting [3]); with Aspergillus terreus AT4 (setting [4]); in test [1] (setting [3]); in test [1] (setting [4]); against Aspergillus niger (setting [3]); with Aspergillus niger (setting [4])) was under 1 mg/L each time. Besides, the MIC (in test [2] (setting [3]); in test [2] (setting [4]); in the test with Aspergillus terreus AT49 (setting [3]); against Aspergillus terreus AT49 (setting [4]); in the test on Aspergillus flavus (setting [3]); with Aspergillus flavus (setting [4])) was under 1 mg/L in each case.

With `CCc1ccnc(N2CCN(c3ccc(NC(=O)C(=O)c4c(-c5ccccc5)cc5n4CCCC5)cc3)CC2)c1` [Example 17, N-{4-[4-(4-Ethyl-pyridin-2-yl)-piperazin-1-yl]-phenyl}-2-oxo-2-(2-phenyl-5,6,7,8-tetrahydro-indolizin-3-yl)-acetamide], the minimal inhibitory concentration (MIC) (in the test on Aspergillus terreus AT4 (setting [3]); against Aspergillus terreus AT4 (setting [4]); in test [1] (setting [3]); in test [1] (setting [4]); against Aspergillus niger (setting [3]); with Aspergillus niger (setting [4])) was under 1 mg/L throughout. Also, the MIC (in test [2] (setting [3]); in test [2] (setting [4]); against Aspergillus terreus AT49 (setting [3]); against Aspergillus terreus AT49 (setting [4]); against Aspergillus flavus (setting [3]); against Aspergillus flavus (setting [4])) was under 1 mg/L in each case.

For `O=C(Nc1ccc(N2CCN(c3ccc(CN4CCOCC4)cn3)CC2)cc1)C(=O)c1c(-c2ccccc2)cc2n1CCCC2` [Example 18, N-{4-[4-(5-Morpholin-4-ylmethyl-pyridin-2-yl)-piperazin-1-yl]-phenyl}-2-oxo-2-(2-phenyl-5,6,7,8-tetrahydro-indolizin-3-yl)-acetamide], the MIC (with Aspergillus terreus AT4 (setting [3]); in the test on Aspergillus terreus AT4 (setting [4]); in test [1] (setting [3]); in test [1] (setting [4]); with Aspergillus niger (setting [3]); in the test with Aspergillus niger (setting [4])) was under 1 mg/L in each case. Also, the MIC (in test [2] (setting [3]); in test [2] (setting [4]); against Aspergillus terreus AT49 (setting [3]); against Aspergillus terreus AT49 (setting [4]); in the test with Aspergillus flavus (setting [3]); in the test with Aspergillus flavus (setting [4])) was under 1 mg/L each time.

`Cc1cc(C)nc(N(C)CCCN(C)c2ccc(NC(=O)C(=O)c3c(-c4ccccc4)cc4n3CCCC4)cc2)c1` [Example 19, N-[4-({3-[(4,6-Dimethyl-pyridin-2-yl)-methyl-amino]-propyl}-methyl-amino)-phenyl]-2-oxo-2-(2-phenyl-5,6,7,8-tetrahydro-indolizin-3-yl)-acetamide]: the MIC (against Aspergillus terreus AT4 (setting [3]); with Aspergillus terreus AT4 (setting [4]); in test [1] (setting [3]); in test [1] (setting [4]); against Aspergillus niger (setting [3]); in the test with Aspergillus niger (setting [4])) was under 1 mg/L throughout. The MIC (in test [2] (setting [3]); in test [2] (setting [4]); against Aspergillus terreus AT49 (setting [3]); in the test with Aspergillus terreus AT49 (setting [4]); against Aspergillus flavus (setting [3]); with Aspergillus flavus (setting [4])) was under 1 mg/L throughout.

As for `Cc1cc(C)nc(N2CCN(c3ccc(NC(=O)C(=O)c4c(-c5ccccc5)cc5n4CCCC5)c(C)c3)CC2)c1` [Example 20, N-{4-[4-(4,6-Dimethyl-pyridin-2-yl)-piperazin-1-yl]-2-methyl-phenyl}-2-oxo-2-(2-phenyl-5,6,7,8-tetrahydro-indolizin-3-yl)-acetamide], the minimum inhibitory concentration (MIC) (against Aspergillus terreus AT4 (setting [3]); in the test with Aspergillus terreus AT4 (setting [4]); in test [1] (setting [3]); in test [1] (setting [4]); in the test with Aspergillus niger (setting [3]); with Aspergillus niger (setting [4])) was under 1 mg/L each time. The MIC (in test [2] (setting [3]); in test [2] (setting [4]); against Aspergillus terreus AT49 (setting [3]); in the test with Aspergillus terreus AT49 (setting [4]); with Aspergillus flavus (setting [3]); with Aspergillus flavus (setting [4])) was under 1 mg/L throughout.

In general, MIC refers to the smallest concentration in the dilution series that meets the test's criterion for growth inhibition. A higher MIC goes with a less susceptible organism.
